In one data set the target is T1, NBD1 (Homo sapiens, UniProt P13569).
T1 construct: Purified recombinant NBD1 was produced using previously described methods; made in house
Description: Aggregation analysis using differential static light scattering (DSLS), thermal stability of NBD1 (ΔTagg). The conditions noted are these: ΔTagg versus DMSO control, NBD1 0.2 mg/ml. The data set is classed as binding. Summed up:
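Purified recombinant NBD1 at 0.2 mg/ml in Tris buffer pH7.6 with 2 mM ATP, 5 mM MgCl2, 2 mM DTT and 1% glycerol was mixed with DMSO-dissolved compounds under mineral oil. Plates were heated at 1° C. per minute to 70° C., light scattering imaged every 0.5° C.; Tagg from curve inflection, minus DMSO-control mean.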

A further data set deals with T2, CFTR (Homo sapiens, UniProt P13569, DEL508-508).
T2 construct: Primary human bronchial epithelial cells from a ΔF508 homozygous CF donor; host or cells: primary human bronchial epithelial cells (CF-HBE), ΔF508 homozygous donor
T2 sequence (P13569 with tags, fused parts or gaps DEL508-508): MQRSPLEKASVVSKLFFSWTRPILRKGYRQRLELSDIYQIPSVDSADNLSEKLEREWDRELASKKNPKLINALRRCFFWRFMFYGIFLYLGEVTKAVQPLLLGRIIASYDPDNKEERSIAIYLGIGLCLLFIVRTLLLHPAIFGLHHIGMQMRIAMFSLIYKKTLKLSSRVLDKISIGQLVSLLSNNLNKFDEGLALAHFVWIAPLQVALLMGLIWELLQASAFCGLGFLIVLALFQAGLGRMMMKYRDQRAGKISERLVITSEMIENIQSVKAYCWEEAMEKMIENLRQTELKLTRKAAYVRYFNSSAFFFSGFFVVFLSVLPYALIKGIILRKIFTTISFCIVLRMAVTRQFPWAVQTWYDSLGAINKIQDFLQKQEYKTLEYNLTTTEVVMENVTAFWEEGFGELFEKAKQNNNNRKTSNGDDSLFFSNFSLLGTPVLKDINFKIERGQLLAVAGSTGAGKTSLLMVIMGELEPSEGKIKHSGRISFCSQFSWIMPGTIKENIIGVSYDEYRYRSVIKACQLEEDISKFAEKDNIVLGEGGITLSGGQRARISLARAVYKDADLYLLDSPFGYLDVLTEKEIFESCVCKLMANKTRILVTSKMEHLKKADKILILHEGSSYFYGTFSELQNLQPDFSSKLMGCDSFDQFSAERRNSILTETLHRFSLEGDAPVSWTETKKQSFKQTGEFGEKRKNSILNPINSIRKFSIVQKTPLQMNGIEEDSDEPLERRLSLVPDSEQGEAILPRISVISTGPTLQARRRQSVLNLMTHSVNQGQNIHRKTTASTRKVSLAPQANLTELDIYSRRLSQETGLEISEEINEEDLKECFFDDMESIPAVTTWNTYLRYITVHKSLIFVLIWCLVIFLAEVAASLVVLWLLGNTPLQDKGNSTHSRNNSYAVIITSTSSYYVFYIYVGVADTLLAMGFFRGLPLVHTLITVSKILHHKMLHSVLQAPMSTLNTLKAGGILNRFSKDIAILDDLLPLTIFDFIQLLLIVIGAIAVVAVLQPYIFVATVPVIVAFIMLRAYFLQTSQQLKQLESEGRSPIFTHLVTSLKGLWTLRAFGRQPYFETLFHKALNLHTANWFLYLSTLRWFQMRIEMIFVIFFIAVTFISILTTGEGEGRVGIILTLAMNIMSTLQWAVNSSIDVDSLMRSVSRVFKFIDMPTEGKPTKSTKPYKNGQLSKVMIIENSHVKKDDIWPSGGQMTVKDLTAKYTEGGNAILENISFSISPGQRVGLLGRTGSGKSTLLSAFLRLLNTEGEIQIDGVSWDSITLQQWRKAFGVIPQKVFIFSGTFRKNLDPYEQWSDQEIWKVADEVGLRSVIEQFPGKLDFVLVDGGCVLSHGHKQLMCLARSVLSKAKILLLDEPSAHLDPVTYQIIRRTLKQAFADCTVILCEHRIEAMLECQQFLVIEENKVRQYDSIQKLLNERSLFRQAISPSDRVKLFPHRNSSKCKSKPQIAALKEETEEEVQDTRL
Description: TECC24 AUC fold over DMSO @10 μM, CFTR-mediated transepithelial chloride transport in CF-HBE cells. The data set is classed as cell-based. As to conditions: test agent AUC divided by DMSO vehicle AUC, primary CF-HBE cells, ΔF508 homozygous donor, 48 hours incubation. Summed up: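 Value is ratio of test-agent to DMSO AUC of equivalent transepithelial Cl− current, integrated from forskolin (10 μM) stimulation to CFTR inhibitor-172 (20 μM) block, with benzamil 10 μM present. CF-HBE (ΔF508/ΔF508) cultures had 48 h compound exposure at 10 μM, 36.5° C before recording.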

Where two headings read alike, the source gives them in different places.

T1 sequence (P13569 423-646 limits assumed): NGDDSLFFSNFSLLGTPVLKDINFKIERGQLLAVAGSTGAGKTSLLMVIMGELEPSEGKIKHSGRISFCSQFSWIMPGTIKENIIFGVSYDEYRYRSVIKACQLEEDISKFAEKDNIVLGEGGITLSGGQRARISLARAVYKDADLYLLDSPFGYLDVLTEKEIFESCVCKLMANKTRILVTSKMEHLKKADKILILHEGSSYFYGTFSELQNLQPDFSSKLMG

Turning to “Diastereomer 1 of methyl 3-methoxy-2-(3-((R,1^4Z,5E)-2^6,4^6,4^7-trifluoro-1^1,9,9,13-tetramethyl-4^1-(methylsulfonyl)-7,7-dioxido-1^1H,4^1H-3,7-dithia-4(5,4)-indola-1(5,3)-triazola-2(1,3)-benzenacyclotridecaphan-5-en-13-yl)benzyl)propanoate”, the ring closure, isolated yield (cc_pd bond, 18-membered ring, chloro[(tBu3P)(2-aminobiphenyl-2-yl)Pd(II)]/tBu3P-HBF4/Cy2NMe, toluene, 16.8 mM, 120.0 °C) is 68%. For the molecule `O=Cc1c(Oc2ccc(F)c(-c3ncc(C(CCCCCCS(=O)(=O)CC(=O)O)c4cccc(I)c4)[nH]3)c2)c(F)cc2[nH]ccc12` (stereo not drawn), the ring closure, isolated yield (the molecule shown is the open-chain precursor, other bond, 19-membered ring, piperidine/AcOH, toluene, 2.7 mM, 100.0 °C) was found to be 10%. In turn, `COC(=O)[C@@H](C)Cc1cccc([C@@]2(C)CCCC(C)(C)CS(=O)(=O)/C=C/c3c(c(F)c(F)c4[nH]ccc34)Sc3ccc(F)c(c3)-c3nc2nn3C)c1` showed a ring closure, isolated yield (from C=CS(=O)(=O)CC(C)(C)CCC[C@](C)(c1cccc(C[C@H](C)C(=O)OC)c1)c1nc(-c2cc(Sc3c(F)c(F)c4[nH]ccc4c3Br)ccc2F)n(C)n1, cc_pd bond, 18-membered ring, Pd(PtBu3)2/Et3N, toluene, 9.7 mM, 120.0 °C, 4.0 h) of 80%. `Cn1nc2nc1-c1cc(ccc1F)Oc1c(F)cc3c(ccn3S(=O)(=O)c3ccccc3)c1Cn1cc(cn1)C(C)(C)CSCCC2(C)c1cccc(Br)c1` (stereo not drawn) returned a ring closure, isolated yield (from Cn1nc(C(C)(CCSCC(C)(C)c2cn[nH]c2)c2cccc(Br)c2)nc1-c1cc(Oc2c(F)cc3c(ccn3S(=O)(=O)c3ccccc3)c2CO)ccc1F, other bond, 19-membered ring, cyanomethylenetributylphosphorane, toluene, 14.0 mM, 110.0 °C, 4.0 h) of 37%. For the setting “from C=CS(=O)(=O)CC(C)(C)CCCC(C)(c1cccc(C[C@@H](C)C(=O)OC)c1)c1nc(-c2cc(Oc3c(F)cc4[nH]ccc4c3Br)ccc2F)n(C)n1, cc_pd bond, 18-membered ring, Pd(PtBu3)2/second reagent truncated, toluene, 8.15 mM, 2.0 h”, `COC(=O)[C@H](C)Cc1cccc(C2(C)CCCC(C)(C)CS(=O)(=O)C=Cc3c(c(F)cc4[nH]ccc34)Oc3ccc(F)c(c3)-c3nc2nn3C)c1` (stereo partly drawn) had a ring closure, isolated yield of 48%. With `CCOC(=O)CCc1cccc(C2CCCC(C)(C)CSCCc3c(c(F)cc4[nH]ccc34)Oc3ccc(F)c(c3)-c3nn2cc3C#N)c1` (stereo not drawn), the ring closure, isolated yield (from CCOC(=O)CCc1cccc(C(O)CCCC(C)(C)CSCCc2c(Oc3ccc(F)c(-c4n[nH]cc4C#N)c3)c(F)cc3[nH]ccc23)c1, other bond, 18-membered ring, cyanomethylenetributylphosphorane, 1,4-dioxane, 40.9 mM, 150.0 °C, 0.67 h) was 46%. Regarding `COC(=O)[C@H](C)Cc1cccc([C@@]2(C)CCCC(C)(C)CS(=O)(=O)C=Cc3c(c(F)cc4[nH]ccc34)Oc3ccnc(c3)-c3nc2nn3C)c1`, where the note is “from C=CS(=O)(=O)CC(C)(C)CCC[C@](C)(c1cccc(C[C@@H](C)C(=O)OC)c1)c1nc(-c2cc(Oc3c(F)cc4[nH]ccc4c3Br)ccn2)n(C)n1, cc_pd bond, 18-membered ring, Pd(PtBu3)2/Et3N, toluene, 2.74 mM, 120.0 °C, 4.0 h”, the ring closure, isolated yield was found to be 64%. Take “methyl (2R)-3-[3-[(14E)-23,29-difluoro-7,11,11-trimethyl-13,13-dioxo-20-(p-tolylsulfonyl)-25-oxa-13 6-thia-5,6,20-triazapentacyclo[24.3.1.02,6.016,24.017,21]triaconta-1(30),2,4,14,16,18,21,23,26,28-decaen-7-yl]phenyl]-2-methyl-propanoate”: the ring closure, isolated yield (cc_pd bond, 17-membered ring, Pd(PtBu3)2/Et3N, toluene, 0.65 mM, 100.0 °C) stood at 23%. As to `Cn1nc2nc1-c1cc(ccc1F)Oc1c(F)cc3c(ccn3COCc3ccccc3)c1/C=C/S(=O)(=O)CCCCOC2c1cccc(CCCO)c1` (stereo not drawn), the ring closure, isolated yield (from Cn1nc(C(OCCCCS(C)(=O)=O)c2cccc(CCCO)c2)nc1-c1cc(Oc2c(F)cc3c(ccn3COCc3ccccc3)c2C=O)ccc1F, other bond, 18-membered ring, NaH, DMF, 19.4 mM) was determined as 26%. Molecule `C=CS(=O)(=O)CC(C)(C)CCC[C@](C)(c1cccc(C[C@H](C)C(=O)OC)c1)c1nc(-c2cc(Oc3cc4cc[nH]c4c(F)c3F)ccc2F)n(C)n1` showed a ring closure, isolated yield (the molecule shown is the open-chain precursor, cc_pd bond, 20-membered ring, Pd(OAc)2/Cu(OAc)2, DMF/DMSO 9:1, 1.36 mM, 70.0 °C) of 20%. `COC(=O)[C@@H](C)Cc1cccc([C@@]2(C)CCCC(C)(C)CS(=O)(=O)/C=C/c3c(c(F)cc4[nH]ccc34)Sc3ccc(F)c(c3)-c3nc2nn3C)c1`: the ring closure, isolated yield (from C=CS(=O)(=O)CC(C)(C)CCC[C@](C)(c1cccc(C[C@H](C)C(=O)OC)c1)c1nc(-c2cc(Sc3c(F)cc4[nH]ccc4c3Br)ccc2F)n(C)n1, cc_pd bond, 18-membered ring, Pd(PtBu3)2/Et3N, toluene, 25.9 mM, 120.0 °C, 2.5 h) was 69%. `[2H]C([2H])([2H])n1nc2nc1-c1cc(ccc1F)Oc1c(F)cc3[nH]ccc3c1C=C(C(=O)OCC)S(=O)(=O)CCCCCC2(C)c1cccc(OCC(=O)OCC)c1` (stereo not drawn) gave a ring closure, isolated yield (from [2H]C([2H])([2H])n1nc(C(C)(CCCC(C)(C)CS(=O)(=O)CC(=O)OCC)c2cccc(OCC(=O)OCC)c2)nc1-c1cc(Oc2c(F)cc3[nH]ccc3c2C=O)ccc1F, other bond, 18-membered ring, piperidine/AcOH, toluene, 2.6 mM, 110.0 °C) of 52%. For the molecule `COC(=O)[C@H](C)Cc1cccc([C@@]2(C)CCCC(C)(C)CS(=O)(=O)/C=C/c3c(c(F)c(F)c4[nH]ccc34)Sc3ccnc(c3)-c3nc2nn3C)c1`, the ring closure, isolated yield (cc_pd bond, 18-membered ring, Pd(PtBu3)2/Et3N, toluene, 21.3 mM, 120.0 °C) turned out to be 56%. In turn, `COC(=O)/C1=C\c2c(c(F)cc3[nH]ccc23)Oc2cccc(c2)-c2ccn(n2)C(c2cccc(Br)c2)CCCC(C)(C)CS1(=O)=O` (stereo not drawn) registered a ring closure, isolated yield (from COC(=O)CS(=O)(=O)CC(C)(C)CCCC(c1cccc(Br)c1)n1ccc(-c2cccc(Oc3c(F)cc4[nH]ccc4c3C=O)c2)n1, other bond, 18-membered ring, piperidine/rest truncated, toluene, 3.5 mM, 100.0 °C) of 43%.

For the molecule `COC(=O)[C@H](C)Cc1cccc(C2(C)CCCC(C)(C)CS(=O)(=O)/C=C/c3c(c(F)cc4c3ccn4S(=O)(=O)c3ccc(C)cc3)Oc3ccc(F)c(c3)-c3ccn2n3)c1` (stereo partly drawn), where the note is “cc_pd bond, 18-membered ring, Pd(PtBu3)2/Et3N, toluene, 0.65 mM, 100.0 °C”, the ring closure, isolated yield came out at 11%.

Take `COC(=O)[C@H](C)Cc1cccc([C@@]2(C)CCCC(C)(C)CS(=O)(=O)/C=C/c3c(c(F)c(F)c4[nH]ccc34)Oc3ccc(F)c(c3)-c3nc2nn3C)c1`: the ring closure, isolated yield (from C=CS(=O)(=O)CC(C)(C)CCC[C@](C)(c1cccc(C[C@@H](C)C(=O)OC)c1)c1nc(-c2cc(Oc3c(F)c(F)c4[nH]ccc4c3Br)ccc2F)n(C)n1, cc_pd bond, 18-membered ring, Pd(PtBu3)2/Et3N, toluene, 10.8 mM, 120.0 °C, 3.5 h) is 68%. In the case of `Cc1cn2nc1-c1cc(ccc1F)Oc1c(F)cc3[nH]ccc3c1CCS(=O)(=O)CC(C)(C)COCCC2c1cccc(CCC(=O)O)c1` (stereo not drawn) [Compound 76, 3-[3-(23,29-Difluoro-3,11,11-trimethyl-13,13-dioxo-9,25-dioxa-13λ6-thia-5,20,31-triazapentacyclo[24.3.1.12,5.016,24.017,21]hentriaconta-1(30),2(31),3,16,18,21,23,26,28-nonaen-6-yl)phenyl]propanoic Acid], the “DSLS 3D (100 μM ΔT)” value on NBD1 is “C (a value greater than 10 °C and less than or equal to 25 °C is marked “C”)”. Moreover, the “TECC (AUC, 10 μM)” value at CFTR is “A (a TECC value less than 12 is marked “A”)”. `Cn1nc2nc1-c1cc(ccc1F)Oc1c(F)cc3[nH]ccc3c1CCS(=O)(=O)CC(C)(C)OCCC2(C)c1cccc(CCO)c1` (stereo not drawn) [Compound 78, 2-[3-(22,28-Difluoro-3,6,10,10-tetramethyl-12,12-dioxo-9,24-dioxa-12lambda6-thia-3,4,19,30-tetrazapentacyclo-[23.3.1.12,5.015,23.016,20]triaconta-1(29),2(30),4,15,17,20,22,25,27-nonaen-6-yl)phenyl]-ethanol]: the “DSLS 3D (100 μM ΔT)” value at NBD1 was “B (a value above 5 °C and less than or equal to 10 °C is marked “B”)”. Moreover, at CFTR, the “TECC (AUC, 10 μM)” value is reported as “A (a TECC value less than 12 is marked “A”)”. Turning to `C[C@@H](O)Cc1cccc([C@@]2(C)CCCC(C)(C)CS(=O)(=O)CCc3c(c(F)cc4[nH]ccc34)Sc3ccc(F)c(c3)-c3nc2nn3C)c1` [Compound 263, (2R)-1-[3-[(6R)-22,28-difluoro-3,6,10,10-tetramethyl-12,12-dioxo-12λ6,24-dithia-3,4,19,30-tetrazapentacyclo[23.3.1.12,5.015,23.016,20]triaconta-1(29),2(30),4,15,17,20,22,25,27-nonaen-6-yl]phenyl]propan-2-ol], at NBD1, the “DSLS 3D (100 μM ΔT)” value was “B (a value above 5 °C and less than or equal to 10 °C is marked “B”)”. Further, the “TECC (AUC, 10 μM)” value at CFTR was “C (a value between 20 and 80 is marked “C”)”.

Consider `Cn1nc2nc1-c1cc(ccc1F)Oc1c(F)cc3[nH]ccc3c1CCS(=O)(=O)CC(C)(C)CCCC2(C)c1cccc(CC(C(=O)O)C(F)(F)F)c1` (stereo not drawn) [Compound 168, 2-[[3-(22,28-Difluoro-3,6,10,10-tetramethyl-12,12-dioxo-24-oxa-12λ6-thia-3,4,19,30-tetrazapentacyclo[23.3.1.12,5.015,23.016,20]triaconta-1(29),2(30),4,15,17,20,22,25,27-nonaen-6-yl)phenyl]methyl]-3,3,3-trifluoro-propanoic acid], for which the “DSLS 3D (100 μM ΔT)” value on NBD1 was “C (a value greater than 10 °C and less than or equal to 25 °C is marked “C”)”. Besides, at CFTR, the “TECC (AUC, 10 μM)” value is listed as “B (a value between 12-20 is marked “B”)”.

(Values after US12649750B2, “Macrocyclic compounds, compositions, and methods of using thereof” (Sionna Therapeutics Inc., priority 2022, dated 2026).)
